Drawing on patent US8722890B2 (AbbVie Inc., priority 2008, dated 2014), this text covers IC50 for six molecules.

One may read the IC50 as the concentration at which inhibition is half-maximal.

Series [1] addresses Aurora B (Homo sapiens (Human), UniProt Q96GD4). Description: Aurora B activity assay (time-resolved fluorescence). In kind it is biochemical. The note with it: Table 3; 1 mM ATP. As for the experimental part: After 1 hour, the reaction was stopped with EDTA and anti-phospho-histone H3 Europium Cryptate (Cis-Bio) and SA-APC (Phycolink, Prozyme) were added to detect the phosphopeptide. The amount of phosphorylation was determined by the time-resolved fluorescence ratio of signals at 665 nm and 615 nm. The IC50's were calculated by an exponential fit of the inhibition values with the inhibitor concentrations using Assay Explorer software.

Series [2] has as its target Aurora C (Homo sapiens (Human), UniProt Q9UQB9). The experiment in a line: Aurora C activity assay (time-resolved fluorescence). In kind it is biochemical. The settings on record: Table 5; read-out: Aurora C HTRF IC50. As for the experimental part:
To determine Aurora A and C activity of representative compounds of the invention, Active Aurora A or C enzyme was incubated in wells of a 384 well plate with biotinylated STK substrate-2 (Upstate), 1 mM ATP, and various concentrations of inhibitors in a Hepes buffer, pH 7.4 containing MgCl2, sodium othrovanadate, and Triton X-100. After 1 hour, the reaction was stopped with EDTA and anti-phospho-STK antibody Europium Cryptate (Upstate) and SA-XL665 (Upstate) were added to detect the phosphopeptide. The amount of phosphorylation was determined by the time-resolved fluorescence ratio of signals at 665 nm and 615 nm. The IC50s were calculated by an exponential fit of the inhibition values with the inhibitor concentrations using Assay Explorer software.
(In general: Time-resolved FRET reads energy transfer from a long-lived donor to a nearby acceptor.)

Series [3] has as its target KDR (Homo sapiens (Human), UniProt P35968). Description: HTRF in vitro kinase assay, KDR. In kind it is biochemical. The note with it: VEGFR family; 1 mM ATP. The protocol: (§1) To determine the activity of the various kinases, a homogenous time-resolved fluorescence (HTRF) in vitro kinase assay was used.
(§2) For example for KDR, cKIT, FLT1, CSF1R and FTL3, purified enzyme was mixed with 0.5 μM N-biotinylated substrate (Biotin-Ahx-[…]-amide (SEQ. ID. 1)), various concentrations of inhibitor in reaction buffer (50 mM HEPES, pH 7.1, 10 mM MgCl2, 2 mM MnCl2, 0.1% BSA and 1 mM DTT, 40 μL final volume), ATP (1 mM final conc.) in a black 384-well plate. […] The quenched reaction was allowed to stand at room temperature for 3 hours and was then read in a time-resolved fluorescence detector (InVision, Perkin-Elmer) at 620 nm and 665 nm sequentially with excitation.

Series [4] concerns the target CYP 3A4 (Homo sapiens (Human), UniProt P08684). The experiment in a line: CYP 3A4 Assay (pooled human liver microsomes, midazolam). The protocol:
Assays (200 μL final volume) were carried out in NUNC polypropylene deep well plates in 50 mM potassium phosphate buffer, pH 7.4, using a microtiter plate shaker in a 37° C. incubator. […] A constant amount of dimethylsulfoxide (1%) was added to the incubations with the test compounds, and each analysis was performed in duplicate. For preincubation experiments (Pre), the microsomes, test compounds, and NADPH were mixed and incubated 30 minutes before addition of midazolam. For coincubation experiments (Co), the compounds, microsomes, and midazolam were mixed and the reaction initiated by addition of NADPH to the wells. In both protocols, the complete reaction was terminated after 10 minutes of shaking by addition of 100 μL of a 1/1 mixture of acetonitrile and methanol containing 0.33 μM 1-hydroxytriazolam.
For analysis, an aliquot of each well were transferred to an autosampler vial and 10 μL injected onto a Shimadzu LC-10A HPLC system equipped with a YMC-AQ (2.0×50 mm) column. The components were separated using a gradient of 10% acetonitrile −0.1% acetic acid to 70% acetonitrile −0.1% acetic acid at a flow rate of at 0.4 mL/minute over 5 minutes.
For orientation: Liver microsomes are a subcellular fraction often used to study metabolism.

Series [5] deals with cKIT (Homo sapiens (Human), UniProt P10721). Description: HTRF in vitro kinase assay, cKIT. In kind it is biochemical. The settings on record: PDGFR family; 1 mM ATP. The protocol: as §1, §2

Where two headings read alike, the source gives them in different places.

Chain of Aurora B (Q96GD4 whole entry): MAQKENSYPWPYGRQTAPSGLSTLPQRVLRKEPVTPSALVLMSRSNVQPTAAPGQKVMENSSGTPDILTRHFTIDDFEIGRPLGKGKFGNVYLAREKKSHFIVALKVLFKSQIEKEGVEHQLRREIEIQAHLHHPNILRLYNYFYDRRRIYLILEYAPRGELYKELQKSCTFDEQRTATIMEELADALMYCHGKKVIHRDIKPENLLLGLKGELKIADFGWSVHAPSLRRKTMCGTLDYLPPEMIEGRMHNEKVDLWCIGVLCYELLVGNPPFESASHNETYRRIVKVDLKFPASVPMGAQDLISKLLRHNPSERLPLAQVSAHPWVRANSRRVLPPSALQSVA
Chain of Aurora B (Q9NQS7 826-918 partner): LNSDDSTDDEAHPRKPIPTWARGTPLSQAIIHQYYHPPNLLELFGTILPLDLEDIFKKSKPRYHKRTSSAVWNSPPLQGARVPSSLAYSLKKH
Chain of cKIT (P10721 544-976): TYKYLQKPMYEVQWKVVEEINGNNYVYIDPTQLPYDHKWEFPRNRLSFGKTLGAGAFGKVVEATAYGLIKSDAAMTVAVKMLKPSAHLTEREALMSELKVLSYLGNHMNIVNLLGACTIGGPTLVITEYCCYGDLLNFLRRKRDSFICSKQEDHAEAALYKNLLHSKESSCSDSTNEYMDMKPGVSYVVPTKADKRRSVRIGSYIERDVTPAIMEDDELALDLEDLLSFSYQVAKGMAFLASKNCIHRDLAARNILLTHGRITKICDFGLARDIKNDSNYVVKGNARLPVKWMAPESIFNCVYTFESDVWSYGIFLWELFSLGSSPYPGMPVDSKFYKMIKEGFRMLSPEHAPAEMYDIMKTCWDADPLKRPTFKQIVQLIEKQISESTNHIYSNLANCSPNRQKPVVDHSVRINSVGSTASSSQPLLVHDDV
Chain of CYP 3A4 (P08684 whole entry): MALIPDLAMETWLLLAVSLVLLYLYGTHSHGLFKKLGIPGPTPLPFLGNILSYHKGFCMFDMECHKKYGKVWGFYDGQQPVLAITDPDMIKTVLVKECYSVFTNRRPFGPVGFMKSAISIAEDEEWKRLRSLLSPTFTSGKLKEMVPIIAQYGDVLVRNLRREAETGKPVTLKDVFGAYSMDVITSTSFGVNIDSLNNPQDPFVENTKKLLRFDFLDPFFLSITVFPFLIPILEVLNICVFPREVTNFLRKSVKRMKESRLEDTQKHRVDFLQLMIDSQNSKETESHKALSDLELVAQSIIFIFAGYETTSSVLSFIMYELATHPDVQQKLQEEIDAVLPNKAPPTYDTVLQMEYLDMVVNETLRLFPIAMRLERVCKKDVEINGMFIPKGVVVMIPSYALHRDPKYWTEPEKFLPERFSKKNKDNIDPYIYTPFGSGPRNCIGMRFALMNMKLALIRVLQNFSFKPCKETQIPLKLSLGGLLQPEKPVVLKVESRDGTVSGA
Chain of Aurora C (Q9UQB9 whole entry): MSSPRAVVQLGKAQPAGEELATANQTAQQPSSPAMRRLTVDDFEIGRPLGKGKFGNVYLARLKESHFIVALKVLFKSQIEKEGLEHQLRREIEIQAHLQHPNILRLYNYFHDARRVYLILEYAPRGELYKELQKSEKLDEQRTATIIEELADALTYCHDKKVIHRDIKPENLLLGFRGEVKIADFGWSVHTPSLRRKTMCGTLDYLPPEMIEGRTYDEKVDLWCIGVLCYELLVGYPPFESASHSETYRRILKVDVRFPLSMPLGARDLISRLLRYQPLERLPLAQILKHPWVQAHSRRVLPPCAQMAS
Chain of KDR (P35968 789-1354): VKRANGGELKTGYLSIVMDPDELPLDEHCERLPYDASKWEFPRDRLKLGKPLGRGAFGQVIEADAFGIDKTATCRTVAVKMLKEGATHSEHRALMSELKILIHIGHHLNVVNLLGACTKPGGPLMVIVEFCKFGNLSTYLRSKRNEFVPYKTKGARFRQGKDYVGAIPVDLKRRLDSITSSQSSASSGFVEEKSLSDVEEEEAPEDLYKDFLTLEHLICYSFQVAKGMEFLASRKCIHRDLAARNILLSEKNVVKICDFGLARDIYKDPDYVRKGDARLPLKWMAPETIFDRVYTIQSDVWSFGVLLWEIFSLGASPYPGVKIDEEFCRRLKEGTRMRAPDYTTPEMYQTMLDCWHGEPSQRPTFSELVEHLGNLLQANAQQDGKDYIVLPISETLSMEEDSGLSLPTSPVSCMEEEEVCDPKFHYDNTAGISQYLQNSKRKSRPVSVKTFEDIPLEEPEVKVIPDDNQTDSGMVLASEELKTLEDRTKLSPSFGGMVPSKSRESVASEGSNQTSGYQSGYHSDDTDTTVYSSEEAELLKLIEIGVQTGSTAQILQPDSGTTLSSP

With `Cc1cccc(NC(=O)Nc2ccc(-c3csc4c(-c5cn[nH]c5)cnc(N)c34)cc2)c1` [Example 6, N-{4-[4-amino-7-(1H-pyrazol-4-yl)thieno[3,2-c]pyridin-3-yl]phenyl}-N′-(3-methylphenyl)urea, reference compound], half-maximal inhibition in series [1] (IC50) was put at 0.00844 µM.

Consider `Nc1ncc(-c2cnn(CCO)c2)c2scc(-c3ccc(NC(=O)Nc4cccc(F)c4)cc3)c12` [Example 1, N-(4-{4-amino-7-[1-(2-hydroxyethyl)-1H-pyrazol-4-yl]thieno[3,2-c]pyridin-3-yl}phenyl)-N′-(3-fluorophenyl)urea], for which the IC50 in series [2] came to 0.001 µM. Regarding `COc1ccc(NC(=O)Nc2ccc(-c3csc4c(-c5cnn(CC(C)(C)O)c5)cnc(N)c34)cc2)cc1` [Example 4, N-(4-{4-amino-7-[1-(2-hydroxy-2-methylpropyl)-1H-pyrazol-4-yl]thieno[3,2-c]pyridin-3-yl}phenyl)-N′-(4-methoxyphenyl)urea], the 50% inhibitory concentration (IC50) in series [1] is 0.0148 µM; in series [3], 0.00501 µM; in series [4] (read-out: CYP 3A4 IC50, coincubation (Co), Co: reaction initiated by addition of NADPH, 2 μM midazolam), greater than 10 µM; in series [4] (read-out: CYP 3A4 IC50, preincubation (Pre), Pre: microsomes, compound, NADPH incubated 30 minutes before midazolam) it was greater than 10 µM. As to `COc1ccc(NC(=O)Nc2ccc(-c3csc4c(-c5cnn(C[C@H](O)CO)c5)cnc(N)c34)cc2)cc1` [Example 5, N-[4-(4-amino-7-{1-[(2S)-2,3-dihydroxypropyl]-1H-pyrazol-4-yl}thieno[3,2-c]pyridin-3-yl)phenyl]-N′-(4-methoxyphenyl)urea], 0.0126 µM corresponded to half-maximal inhibition in series [5] (IC50). On to `Nc1ncc(-c2cnn(CCO)c2)c2scc(-c3ccc(NC(=O)Nc4ccc(OC(F)F)cc4)cc3)c12` [Example 2, N-(4-{4-amino-7-[1-(2-hydroxyethyl)-1H-pyrazol-4-yl]thieno[3,2-c]pyridin-3-yl}phenyl)-N′-[4-(difluoromethoxy)phenyl]urea], for which the values for the IC50 in series [5] and in series [1] were 0.0273 µM and 0.00787 µM, respectively. The molecule `Cc1cccc(NC(=O)Nc2ccc(-c3csc4c(-c5cnn(C[C@H](C)O)c5)cnc(N)c34)cc2)c1` [Example 3, N-[4-(4-amino-7-{1-[(2S)-2-hydroxypropyl]-1H-pyrazol-4-yl}thieno[3,2-c]pyridin-3-yl)phenyl]-N′-(3-methylphenyl)urea] registered a half-inhibitory concentration (IC50) in series [1] of 0.0112 µM.
